Test results taken from patent publication US12662491B2 (Redona Therapeutics, Inc., priority 2020, dated 2026).
Where a name gives a salt, the structure may show the parent alone.

Target: T1, Zcchc11 enzyme (Homo sapiens, UniProt Q5TAX3)
T1 construct: made in house; host or cells: HEK293 cells (Zcchc11); E. coli Rosetta II (LIN28A)
T1 sequence (Q5TAX3 212-1420): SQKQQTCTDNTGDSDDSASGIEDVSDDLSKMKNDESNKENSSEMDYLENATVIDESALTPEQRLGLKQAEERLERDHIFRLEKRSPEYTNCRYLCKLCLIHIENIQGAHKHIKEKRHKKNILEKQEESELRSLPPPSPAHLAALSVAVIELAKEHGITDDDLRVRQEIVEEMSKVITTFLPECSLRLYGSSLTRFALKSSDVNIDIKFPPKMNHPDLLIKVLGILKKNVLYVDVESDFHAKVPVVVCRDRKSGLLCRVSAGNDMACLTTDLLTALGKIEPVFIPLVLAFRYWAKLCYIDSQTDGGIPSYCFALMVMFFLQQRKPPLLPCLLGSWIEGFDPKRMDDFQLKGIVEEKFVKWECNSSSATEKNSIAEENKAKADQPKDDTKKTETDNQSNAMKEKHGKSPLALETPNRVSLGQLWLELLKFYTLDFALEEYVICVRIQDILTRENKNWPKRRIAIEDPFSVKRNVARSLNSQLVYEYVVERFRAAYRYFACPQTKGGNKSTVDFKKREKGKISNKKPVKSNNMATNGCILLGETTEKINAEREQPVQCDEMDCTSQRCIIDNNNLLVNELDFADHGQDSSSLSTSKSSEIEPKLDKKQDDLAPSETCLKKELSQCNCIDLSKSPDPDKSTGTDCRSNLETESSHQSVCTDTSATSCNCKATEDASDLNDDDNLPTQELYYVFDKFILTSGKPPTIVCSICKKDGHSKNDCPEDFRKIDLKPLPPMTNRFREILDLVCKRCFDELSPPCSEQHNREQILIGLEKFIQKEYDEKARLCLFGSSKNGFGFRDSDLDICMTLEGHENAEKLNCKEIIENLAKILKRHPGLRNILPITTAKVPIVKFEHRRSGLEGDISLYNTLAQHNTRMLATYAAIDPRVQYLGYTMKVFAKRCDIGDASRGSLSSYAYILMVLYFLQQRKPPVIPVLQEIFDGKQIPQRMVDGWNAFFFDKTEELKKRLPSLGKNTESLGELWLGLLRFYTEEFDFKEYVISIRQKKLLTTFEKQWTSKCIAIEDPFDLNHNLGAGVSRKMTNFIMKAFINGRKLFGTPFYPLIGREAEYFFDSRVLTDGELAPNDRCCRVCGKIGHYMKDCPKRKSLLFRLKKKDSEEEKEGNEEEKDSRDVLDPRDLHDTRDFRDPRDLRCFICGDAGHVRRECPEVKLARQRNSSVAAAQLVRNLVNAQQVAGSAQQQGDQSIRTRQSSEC
Test: TUTase assay (Zcchc11 assay, Lin28a-dependent polyuridylation of pre-let-7)
Assay type: biochemical
Conditions: Lin28a-dependent Zcchc11 (Z11) TUTase assay; read-out: Potency Lin28a-dep Z11 IC50
In short: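 Human Zcchc11 residues 212-1420 (HEK293-expressed, MBP tag cleaved, C-terminal FLAG) at 0.2 nM, with 10 nM full-length human LIN28A and 2 nM 5′-fluorescein pre-let-7, preincubated with compound 30 min at room temperature. Reaction started with 5 uM UTP plus 4 nM 3′-rhodamine A20 quench probe; fluorescein loss read kinetically, IC50 from initial rates.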

IC50 [nM]	Structure (SMILES)
≤ 1000	CN(C)C1CN(c2ccc(-n3cc(C(=O)O)c(=O)c4cc(Cl)c(N5CCC[C@@H]5COc5ncccc5Cl)cc43)cn2)C1 [Example 476, (R)-6-chloro-7-(2-(((3-chloropyridin-2-yl)oxy)methyl)pyrrolidin-1-yl)-1-(6-(3-(dimethyl-amino)azetidin-1-yl)pyridin-3-yl)-4-oxo-1,4-dihydroquinoline-3-carboxylic acid]
≤ 1000	CNC1CN(c2ccc(-n3cc(C(=O)O)c(=O)c4cc(Cl)c(N5CCC[C@@H]5COc5ncccc5Cl)cc43)cn2)C1 [Example 477, (R)-6-chloro-7-(2-(((3-chloropyridin-2-yl)oxy)methyl)pyrrolidin-1-yl)-1-(6-(3-(methyl-amino)azetidin-1-yl)pyridin-3-yl)-4-oxo-1,4-dihydroquinoline-3-carboxylic acid]
≤ 1000	O=C(O)c1cn(-c2ccc(N3CCNCC3)nc2)c2cc(N3CCC[C@@H]3COc3ncccc3Cl)c(Cl)cc2c1=O [Example 478, (R)-6-chloro-7-(2-(((3-chloropyridin-2-yl)oxy)methyl)pyrrolidin-1-yl)-4-oxo-1-(6-(piperazin-1-yl)pyridin-3-yl)-1,4-dihydroquinoline-3-carboxylic acid]
≤ 1000	O=C(O)c1cn(-c2cnn(CCN3CCC3)c2)c2cc(N3CCC[C@@H]3COc3ncccc3Cl)c(Cl)cc2c1=O [Example 479, (R)-1-(1-(2-(azetidin-1-yl)ethyl)-1H-pyrazol-4-yl)-6-chloro-7-(2-(((3-chloropyridin-2-yl)oxy)methyl)pyrrolidin-1-yl)-4-oxo-1,4-dihydroquinoline-3-carboxylic acid]
≤ 1000	CNCCOc1ccc(-n2cc(C(=O)O)c(=O)c3cc(Cl)c(N4CCC[C@@H]4COc4ncccc4Cl)cc32)cn1 [Example 480, (R)-6-chloro-7-(2-(((3-chloropyridin-2-yl)oxy)methyl)pyrrolidin-1-yl)-1-(6-(2-(methyl-amino)ethoxy)pyridin-3-yl)-4-oxo-1,4-dihydroquinoline-3-carboxylic acid hydrochloride]
≤ 1000	COCCNc1cnc(-n2cc(C(=O)O)c(=O)c3cc(Cl)c(N4CCC[C@@H]4COc4ncccc4Cl)cc32)cn1 [Example 481, 6-chloro-7-[(2R)-2-{[(3-chloropyridin-2-yl)oxy]methyl}pyrrolidin-1-yl]-1-{5-[(2-methoxyethyl)amino]pyrazin-2-yl}-4-oxo-1,4-dihydroquinoline-3-carboxylic acid]
1000 to 10000	COCCN1CC2(CC(n3cc(C(=O)O)c(=O)c4cc(Cl)c(N5CCC[C@@H]5COc5ncccc5Cl)cc43)C2)C1 [Example 482, (R)-6-chloro-7-(2-(((3-chloropyridin-2-yl)oxy)methyl)pyrrolidin-1-yl)-1-(2-(2-methoxy-ethyl)-2-azaspiro[3.3]heptan-6-yl)-4-oxo-1,4-dihydroquinoline-3-carboxylic acid]
≤ 1000	Nc1cnc(-n2cc(C(=O)O)c(=O)c3cc(Cl)c(N4CCC[C@@H]4COc4ncccc4Cl)cc32)cn1 [Example 483, 1-(5-aminopyrazin-2-yl)-6-chloro-7-[(2R)-2-{[(3-chloropyridin-2-yl)oxy]methyl}pyrrolidin-1-yl]-4-oxo-1,4-dihydroquinoline-3-carboxylic acid]
≤ 1000	O=C(O)c1cn(-c2ncco2)c2cc(N3CCC[C@@H]3COc3ncccc3Cl)c(Cl)cc2c1=O [Example 485, (R)-6-chloro-7-(2-(((3-chloropyridin-2-yl)oxy)methyl)pyrrolidin-1-yl)-1-(oxazol-2-yl)-4-oxo-1,4-dihydroquinoline-3-carboxylic acid]
≤ 1000	O=C(O)c1cn(-c2ccc3[nH]ncc3n2)c2cc(N3CCC[C@@H]3COc3ncccc3Cl)c(Cl)cc2c1=O [Example 486, 6-chloro-7-[(2R)-2-{[(3-chloropyridin-2-yl)oxy]methyl}pyrrolidin-1-yl]-4-oxo-1-{1H-pyrazolo[4,3-b]pyridin-5-yl}-1,4-dihydroquinoline-3-carboxylic acid]
≤ 1000	Cc1cc2c(=O)c(C(=O)O)cn(-c3cnccn3)c2cc1N1CCC[C@@H]1COc1ncccc1Cl [Example 487, (R)-7-(2-(((3-chloropyridin-2-yl)oxy)methyl)pyrrolidin-1-yl)-6-methyl-4-oxo-1-(pyrazin-2-yl)-1,4-dihydroquinoline-3-carboxylic acid]
≤ 1000	N#Cc1cc2c(=O)c(C(=O)O)cn(-c3ccc(N4CCC4)nc3)c2cc1N1CCC[C@@H]1COc1ncccc1Cl [Example 488, 1-[6-(azetidin-1-yl)pyridin-3-yl]-7-[(2R)-2-{[(3-chloropyridin-2-yl)oxy)methyl}pyrrolidin-1-yl]-6-cyano-4-oxo-1,4-dihydroquinoline-3-carboxylic acid]
≤ 1000	O=C(O)c1cn(-c2cccnc2)c2cc(N3CCC[C@@H]3COc3ncccc3Cl)c(Cl)cc2c1=O [Example 489, (R)-6-chloro-7-(2-(((3-chloropyridin-2-yl)oxy)methyl)pyrrolidin-1-yl)-4-oxo-1-(pyridin-3-yl)-1,4-dihydroquinoline-3-carboxylic acid]
≤ 1000	O=C(O)c1cn(-c2ccncc2)c2cc(N3CCC[C@@H]3COc3ncccc3Cl)c(Cl)cc2c1=O [Example 490, (R)-6-chloro-7-(2-(((3-chloropyridin-2-yl)oxy)methyl)pyrrolidin-1-yl)-4-oxo-1-(pyridin-4-yl)-1,4-dihydroquinoline-3-carboxylic acid]
≤ 1000	O=C(O)c1cn(-c2ccc(N3CCC3)nc2)c2cc(N3CCC[C@@H]3COc3ncccc3Cl)c(Br)cc2c1=O [Example 491, (R)-1-(6-(azetidin-1-yl)pyridin-3-yl)-6-bromo-7-(2-(((3-chloropyridin-2-yl)oxy)methyl)pyrrolidin-1-yl)-4-oxo-1,4-dihydroquinoline-3-carboxylic acid]
≤ 1000	CN(C)CCNc1cnc(-n2cc(C(=O)O)c(=O)c3cc(Cl)c(N4CCC[C@@H]4COc4ncccc4Cl)cc32)cn1 [Example 492, (R)-6-chloro-7-(2-(((3-chloropyridin-2-yl)oxy)methyl)pyrrolidin-1-yl)-1-(5-((2-(dimethylamino)ethyl)amino)pyrazin-2-yl)-4-oxo-1,4-dihydroquinoline-3-carboxylic acid]
≤ 1000	CS(=O)(=O)Nc1cnc(-n2cc(C(=O)O)c(=O)c3cc(Cl)c(N4CCC[C@@H]4COc4ncccc4Cl)cc32)cn1 [Example 493, (R)-6-chloro-7-(2-(((3-chloropyridin-2-yl)oxy)methyl)pyrrolidin-1-yl)-1-(5-(methyl-sulfonamido)pyrazin-2-yl)-4-oxo-1,4-dihydroquinoline-3-carboxylic acid]
≤ 1000	COCCNC1CN(c2ccc(-n3cc(C(=O)O)c(=O)c4cc(Cl)c(N5CCC[C@@H]5COc5ncccc5Cl)cc43)cn2)C1 [Example 494, (R)-6-chloro-7-(2-(((3-chloropyridin-2-yl)oxy)methyl)pyrrolidin-1-yl)-1-(6-(3-((2-methoxyethyl)amino)azetidin-1-yl)pyridin-3-yl)-4-oxo-1,4-dihydroquinoline-3-carboxylic acid]
≤ 1000	COCCN(C)C1CN(c2ccc(-n3cc(C(=O)O)c(=O)c4cc(Cl)c(N5CCC[C@@H]5COc5ncccc5Cl)cc43)cn2)C1 [Example 495, (R)-6-chloro-7-(2-(((3-chloropyridin-2-yl)oxy)methyl)pyrrolidin-1-yl)-1-(6-(3-((2-methoxyethyl) (methyl)amino)azetidin-1-yl)pyridin-3-yl)-4-oxo-1,4-dihydroquinoline-3-carboxylic acid]

Structure (SMILES)	IC50 [nM]
CC(C)(C)OC(=O)NC1CC(n2cc(C(=O)O)c(=O)c3cc(Cl)c(N4CCC[C@@H]4COc4ncccc4Cl)cc32)C1 (stereo partly drawn) [Example 484, (R)-1-(3-((tert-butoxycarbonyl)amino)cyclobutyl)-6-chloro-7-(2-(((3-chloropyridin-2-yl)oxy)methyl)pyrrolidin-1-yl)-4-oxo-1,4-dihydroquinoline-3-carboxylic acid]	≤ 1000
